Reference: patent US12071408B2, “Multi-targeted tyrosine kinase inhibitors effective in antitumor uses” (Shanghai AB PharmaTech Ltd., priority 2021, dated 2024)
Several values for one entry are separate records, joined by “and”; a condition that tells them apart may be missing. Equal entries are not always repeated. Where two headings read alike, the source gives them in different places.

How the values were obtained:
[1] = MTD toxicity test in rats; conditions: rat, in vivo
rats [2] = test: MTD toxicity test in rats; conditions: rat, in vivo, 300 mg/kg
FGFR3 = FGFR3 (Homo sapiens (Human), UniProt P22607); test: Kinase inhibition, Mobility-Shift Assay; format: biochemical; conditions: read-out: FGFR-3 IC50
Sequence of FGFR3 (P22607 23-806): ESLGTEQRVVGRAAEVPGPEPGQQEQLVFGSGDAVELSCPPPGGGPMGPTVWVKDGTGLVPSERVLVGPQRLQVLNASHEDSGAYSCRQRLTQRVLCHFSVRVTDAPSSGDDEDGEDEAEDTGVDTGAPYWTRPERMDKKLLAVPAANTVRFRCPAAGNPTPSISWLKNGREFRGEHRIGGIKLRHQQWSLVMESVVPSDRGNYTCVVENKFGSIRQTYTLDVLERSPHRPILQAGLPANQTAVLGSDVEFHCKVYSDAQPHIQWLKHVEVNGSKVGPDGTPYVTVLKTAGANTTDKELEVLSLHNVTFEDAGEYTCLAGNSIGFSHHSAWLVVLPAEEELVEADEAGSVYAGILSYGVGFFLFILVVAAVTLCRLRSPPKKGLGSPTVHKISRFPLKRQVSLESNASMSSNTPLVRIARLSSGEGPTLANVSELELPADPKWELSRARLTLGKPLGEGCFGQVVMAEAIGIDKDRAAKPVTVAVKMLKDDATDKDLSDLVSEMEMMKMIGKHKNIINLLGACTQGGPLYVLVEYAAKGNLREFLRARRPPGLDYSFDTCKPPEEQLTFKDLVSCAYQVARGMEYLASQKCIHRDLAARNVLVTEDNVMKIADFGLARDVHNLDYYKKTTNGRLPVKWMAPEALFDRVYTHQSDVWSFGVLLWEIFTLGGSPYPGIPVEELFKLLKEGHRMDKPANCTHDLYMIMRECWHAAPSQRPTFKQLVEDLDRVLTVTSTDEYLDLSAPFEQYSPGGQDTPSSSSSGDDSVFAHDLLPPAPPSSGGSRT
Method: In this experiment, the inhibitory effects of small molecule inhibitors on 17 kinases were examined by using fluorescent microfluidic mobility shift assay (Mobility-Shift Assay).
2. Compounds were configured in 100% DMSO in a concentration gradient and diluted with buffer to 10% DMSO, and added to 384-well plates. Compounds starting at […] are prepared in 100% DMSO to 25 μM and diluted in a gradient of 10 concentrations, then diluted 10-fold in buffer to make an intermediate dilution of the compound containing 10% DMSO and transferred 5 μl to a 384-well plate. 3. The kinase was diluted to optimal concentration with the following buffers: 50 mM HEPES, pH 7.5, 0.00015% Brij-35, 2 mM DTT (final concentration of enzyme reaction: VEGFR-1 (FLT1): 2 nM; VEGFR-2 (KDR): 1.2 nM; VEGFR-3 (FLT4): 1.5 nM; FGFR1: 2 nM); FGFR2: 9 nM; FGFR3: 8 nM; FGFR4: 10 nM; PDGFRα: 3.5 nM; c-MET: 10 nM; RET: 7 nM; EGFR: 6 nM). Transfer 10 μl into a 384-well plate and incubate with the compounds for 10 min. 4. […] Read the conversion rate with Caliper Reader and calculate the conversion rate as suppression, formula Percent inhIcition=(max−conversion)/(max−min)*100. […]

RET = RET (Homo sapiens (Human), UniProt P07949); test: Kinase inhibition, Mobility-Shift Assay; format: biochemical
hERG potassium channels = hERG potassium channels (Homo sapiens (Human), UniProt Q12809); test: hERG in vitro inhibition, whole-cell patch clamp; format: cell-based; conditions: in vitro hERG current inhibition
[3] = test system: thyroid cancer cell line (TT); test: Tumor cell proliferation inhibition (CTG, 72 h); format: cell-based
rats [4] = test: 28-day GLP toxicity test; format: in vivo; conditions: 50, 100, 150 mg/kg once a day by gavage, 28 days
Method: The 28-day GLP toxicity test also used healthy rats at three doses (50 mg/kg, 100 mg/kg, 150 mg/kg), and the three groups of rats were administered once a day by gavage, and the toxicity of the test substance was evaluated by observing the toxicity response of the experimental animals for 28 consecutive days. […] Therefore, the preferred compound “III-01” designed and synthesized by the present invention not only has better inhibitory activity, but also has better safety and drug-forming properties, which is worthy of further clinical trials and application.

PDGFRα = PDGFRα (Homo sapiens (Human), UniProt P16234); test: Kinase inhibition, Mobility-Shift Assay; format: biochemical
[5] = test system: cervical cancer cell line (Hela); test: Tumor cell proliferation inhibition (CTG, 72 h); format: cell-based; conditions: Homo sapiens; Hela cells, class; read-out: Hela activity effect range (IC50)
[6] = test system: hepatocellular carcinoma cell line (Hep3B 2.1-7); test: Tumor cell proliferation inhibition (CTG, 72 h); format: cell-based; conditions: Homo sapiens; Hep3B 2.1-7 cells, class; read-out: Hep3B 2.1-7 range of activity (IC50)
VEGFR-2 (KDR) = VEGFR-2 (KDR) (Homo sapiens (Human), UniProt P35968); test: Kinase inhibition, Mobility-Shift Assay; format: biochemical
Sequence of VEGFR-2 (KDR) (P35968 20-1356): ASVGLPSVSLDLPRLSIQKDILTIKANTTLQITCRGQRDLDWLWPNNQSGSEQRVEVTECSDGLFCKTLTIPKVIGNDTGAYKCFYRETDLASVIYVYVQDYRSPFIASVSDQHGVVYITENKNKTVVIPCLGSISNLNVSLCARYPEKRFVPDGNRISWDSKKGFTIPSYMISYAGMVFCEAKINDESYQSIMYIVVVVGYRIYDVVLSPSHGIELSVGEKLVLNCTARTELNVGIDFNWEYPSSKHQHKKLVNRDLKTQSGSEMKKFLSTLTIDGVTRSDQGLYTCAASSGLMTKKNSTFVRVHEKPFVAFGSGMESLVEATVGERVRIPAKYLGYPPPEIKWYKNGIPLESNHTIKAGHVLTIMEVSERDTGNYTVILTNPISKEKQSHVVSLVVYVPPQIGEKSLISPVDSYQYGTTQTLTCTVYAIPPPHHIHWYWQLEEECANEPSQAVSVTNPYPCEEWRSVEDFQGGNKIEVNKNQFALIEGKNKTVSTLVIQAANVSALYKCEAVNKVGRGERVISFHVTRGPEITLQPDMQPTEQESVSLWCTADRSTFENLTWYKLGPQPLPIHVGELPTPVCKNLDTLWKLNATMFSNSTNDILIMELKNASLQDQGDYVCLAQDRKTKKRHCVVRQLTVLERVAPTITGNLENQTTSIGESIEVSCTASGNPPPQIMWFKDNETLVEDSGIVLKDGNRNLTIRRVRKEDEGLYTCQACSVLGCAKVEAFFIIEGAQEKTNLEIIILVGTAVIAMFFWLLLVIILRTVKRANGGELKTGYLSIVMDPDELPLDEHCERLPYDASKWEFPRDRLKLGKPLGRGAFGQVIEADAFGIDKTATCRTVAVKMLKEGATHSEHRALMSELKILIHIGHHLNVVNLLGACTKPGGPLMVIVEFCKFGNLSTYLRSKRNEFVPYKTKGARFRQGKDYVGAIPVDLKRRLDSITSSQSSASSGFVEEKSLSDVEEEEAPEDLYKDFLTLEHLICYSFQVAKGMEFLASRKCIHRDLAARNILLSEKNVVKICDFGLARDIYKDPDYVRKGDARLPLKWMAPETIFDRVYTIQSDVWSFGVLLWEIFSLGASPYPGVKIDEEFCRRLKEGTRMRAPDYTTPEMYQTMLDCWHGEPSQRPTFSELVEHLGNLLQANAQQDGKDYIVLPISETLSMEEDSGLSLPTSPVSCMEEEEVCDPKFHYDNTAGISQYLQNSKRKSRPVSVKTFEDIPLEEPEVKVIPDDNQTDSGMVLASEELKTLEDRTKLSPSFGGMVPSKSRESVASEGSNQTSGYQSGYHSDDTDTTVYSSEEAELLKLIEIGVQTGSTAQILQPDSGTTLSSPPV

FGFR1 = FGFR1 (Homo sapiens (Human), UniProt P11362); test: Kinase inhibition, Mobility-Shift Assay; format: biochemical; conditions: read-out: FGFR-1 IC50
ABL = ABL (Homo sapiens (Human), UniProt P00519); test: Kinase inhibition, Mobility-Shift Assay; format: biochemical
C-MET = C-MET (Homo sapiens (Human), UniProt P08581); test: Kinase inhibition, Mobility-Shift Assay; format: biochemical
Sequence of C-MET (P08581 25-1390): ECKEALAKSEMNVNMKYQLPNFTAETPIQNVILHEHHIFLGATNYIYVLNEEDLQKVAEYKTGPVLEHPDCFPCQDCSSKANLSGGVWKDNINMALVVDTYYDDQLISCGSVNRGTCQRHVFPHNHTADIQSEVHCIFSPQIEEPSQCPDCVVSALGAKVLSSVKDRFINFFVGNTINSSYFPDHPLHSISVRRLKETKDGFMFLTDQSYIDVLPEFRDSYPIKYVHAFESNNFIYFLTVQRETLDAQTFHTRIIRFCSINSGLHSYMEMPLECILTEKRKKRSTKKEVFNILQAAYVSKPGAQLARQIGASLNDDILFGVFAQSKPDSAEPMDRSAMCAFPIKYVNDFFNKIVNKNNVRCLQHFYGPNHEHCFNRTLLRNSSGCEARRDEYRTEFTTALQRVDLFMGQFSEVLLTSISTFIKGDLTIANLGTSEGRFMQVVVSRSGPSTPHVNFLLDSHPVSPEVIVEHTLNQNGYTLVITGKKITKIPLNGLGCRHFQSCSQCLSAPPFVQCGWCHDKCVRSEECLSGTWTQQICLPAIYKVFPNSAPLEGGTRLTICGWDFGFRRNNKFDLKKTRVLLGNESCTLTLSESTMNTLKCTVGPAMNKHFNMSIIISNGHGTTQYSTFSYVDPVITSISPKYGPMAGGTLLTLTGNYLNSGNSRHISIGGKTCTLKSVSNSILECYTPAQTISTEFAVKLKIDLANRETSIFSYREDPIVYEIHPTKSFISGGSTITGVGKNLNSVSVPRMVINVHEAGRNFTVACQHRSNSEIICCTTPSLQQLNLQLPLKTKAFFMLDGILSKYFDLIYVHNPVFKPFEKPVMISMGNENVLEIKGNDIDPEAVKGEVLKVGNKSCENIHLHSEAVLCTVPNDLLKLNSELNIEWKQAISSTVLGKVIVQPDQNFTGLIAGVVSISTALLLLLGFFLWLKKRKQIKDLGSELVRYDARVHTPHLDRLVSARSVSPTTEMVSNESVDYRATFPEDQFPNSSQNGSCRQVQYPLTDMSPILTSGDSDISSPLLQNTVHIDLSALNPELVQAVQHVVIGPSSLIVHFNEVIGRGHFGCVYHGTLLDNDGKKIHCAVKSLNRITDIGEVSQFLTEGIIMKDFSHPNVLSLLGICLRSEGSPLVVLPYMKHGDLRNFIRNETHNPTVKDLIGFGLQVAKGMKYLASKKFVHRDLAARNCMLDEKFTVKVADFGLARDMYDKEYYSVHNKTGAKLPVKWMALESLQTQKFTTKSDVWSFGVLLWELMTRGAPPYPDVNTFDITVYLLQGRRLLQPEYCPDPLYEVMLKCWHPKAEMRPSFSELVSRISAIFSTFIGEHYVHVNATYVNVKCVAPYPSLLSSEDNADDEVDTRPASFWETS

FGFR2 = FGFR2 (Homo sapiens (Human), UniProt P21802); test: Kinase inhibition, Mobility-Shift Assay; format: biochemical
FGFR4 = FGFR4 (Homo sapiens (Human), UniProt P22455); test: Kinase inhibition, Mobility-Shift Assay; format: biochemical
VEGFR-3 (FLT4) = VEGFR-3 (FLT4) (Homo sapiens (Human), UniProt P35916); test: Kinase inhibition, Mobility-Shift Assay; format: biochemical
[7] = test system: bladder cancer cell line (RT112/84); test: Tumor cell proliferation inhibition (CTG, 72 h); format: cell-based; conditions: Homo sapiens
[8] = test system: leukemia cell line (K562); test: Tumor cell proliferation inhibition (CTG, 72 h); format: cell-based; conditions: Homo sapiens; K562 cells, class; read-out: K562 activity effect range (IC50)
VEGFR-1 (FLT1) = VEGFR-1 (FLT1) (Homo sapiens (Human), UniProt P17948); test: Kinase inhibition, Mobility-Shift Assay; format: biochemical
EGFR = EGFR (Homo sapiens (Human), UniProt P00533); test: Kinase inhibition, Mobility-Shift Assay; format: biochemical
Sequence of EGFR (P00533 25-1210): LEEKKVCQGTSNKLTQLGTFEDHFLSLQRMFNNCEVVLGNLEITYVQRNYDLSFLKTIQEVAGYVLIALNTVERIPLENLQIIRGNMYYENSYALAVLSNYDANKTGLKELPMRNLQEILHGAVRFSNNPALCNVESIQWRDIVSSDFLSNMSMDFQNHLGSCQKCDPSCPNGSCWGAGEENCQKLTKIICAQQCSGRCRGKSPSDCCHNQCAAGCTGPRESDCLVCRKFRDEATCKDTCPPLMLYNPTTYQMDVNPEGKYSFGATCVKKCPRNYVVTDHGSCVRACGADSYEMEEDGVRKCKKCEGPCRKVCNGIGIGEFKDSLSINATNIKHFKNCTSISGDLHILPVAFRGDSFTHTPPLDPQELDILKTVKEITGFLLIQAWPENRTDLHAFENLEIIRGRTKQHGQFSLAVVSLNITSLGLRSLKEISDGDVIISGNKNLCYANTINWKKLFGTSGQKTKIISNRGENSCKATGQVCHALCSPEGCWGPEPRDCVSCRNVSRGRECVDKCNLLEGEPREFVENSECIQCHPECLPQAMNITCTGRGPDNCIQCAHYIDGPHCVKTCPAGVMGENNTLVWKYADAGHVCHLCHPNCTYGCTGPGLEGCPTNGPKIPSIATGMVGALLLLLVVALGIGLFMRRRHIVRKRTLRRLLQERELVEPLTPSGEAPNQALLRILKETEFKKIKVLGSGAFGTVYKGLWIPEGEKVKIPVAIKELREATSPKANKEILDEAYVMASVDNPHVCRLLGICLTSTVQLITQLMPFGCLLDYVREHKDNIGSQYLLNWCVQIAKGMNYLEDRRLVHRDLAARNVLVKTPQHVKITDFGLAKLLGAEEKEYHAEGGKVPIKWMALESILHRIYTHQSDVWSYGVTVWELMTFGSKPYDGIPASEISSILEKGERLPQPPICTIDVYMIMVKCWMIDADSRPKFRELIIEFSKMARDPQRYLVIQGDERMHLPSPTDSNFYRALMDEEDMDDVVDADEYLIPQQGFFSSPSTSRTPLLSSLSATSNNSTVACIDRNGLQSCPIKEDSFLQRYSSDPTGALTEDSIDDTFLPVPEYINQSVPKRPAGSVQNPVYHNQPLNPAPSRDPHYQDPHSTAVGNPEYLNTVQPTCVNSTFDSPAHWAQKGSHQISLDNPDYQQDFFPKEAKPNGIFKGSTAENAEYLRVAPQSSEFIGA

[9] = Homo sapiens, TT cells, class, read-out: TT range of activity (IC50)
[10] = TT thyroid cancer cells, 72 h, read-out: TT (uM), inhibitory activity IC50
[11] = class, read-out: KDR activity effect range (IC50)
[12] = class, read-out: C-MET range of activity (IC50)
[13] = class, read-out: FGFR2 range of activity effects (IC50)
[14] = class, read-out: FGFR4 range of activity effects (IC50)
[15] = RT112/84 bladder cancer cells, 72 h, read-out: RT112/84 (uM), inhibitory activity IC50
[16] = RT112/84 cells, class, read-out: RT112/84 range of activity (IC50)
[17] = class, read-out: EGFR range of activity (IC50)

IC50 [3, 9] | IC50 [5] | IC50 [6] | IC50 (VEGFR-2 (KDR); [11]) | IC50 (C-MET; [12]) | IC50 (FGFR2; [13]) | IC50 (FGFR4; [14]) | IC50 [7, 16] | IC50 [8] | IC50 (EGFR; [17]) | Structure (SMILES) | IC50 (FGFR3) | IC50 [3, 10] | IC50 (C-MET; read-out: C-MET IC50) | IC50 (FGFR4; read-out: FGFR-4 IC50) | IC50 [7, 15] | IC50 (EGFR; read-out: EGFR IC50) | also measured
> 10 µM | > 10000 nM | > 5000 nM | > 10 nM | > 100 nM | > 100 nM | > 100 nM | > 1 µM | > 10000 nM | > 100 nM | COc1cc2nccc(Oc3c(F)cc(NC(=O)NC4CC4)c(Cl)c3N(C)C3CC3)c2cc1C(N)=O [III-48] |  |  |  |  |  |  | 
> 10 µM | > 10000 nM | > 5000 nM | > 10 nM | > 100 nM | > 100 nM | > 100 nM | > 1 µM | > 10000 nM | > 100 nM | COc1cc2nccc(Oc3c(F)cc(NC(=O)NC4CC4)c(Cl)c3N(C)C)c2cc1C(N)=O [III-49] |  |  |  |  |  |  | 
> 10 µM | > 10000 nM | > 5000 nM | > 10 nM | > 100 nM | > 100 nM | > 100 nM | > 1 µM | > 10000 nM | > 100 nM | COc1cc2nccc(Oc3c(F)c(F)c(NC(=O)NC4CC4)c(N(C)C)c3F)c2cc1C(N)=O [III-50] |  |  |  |  |  |  | 
> 10 µM | > 10000 nM | > 5000 nM | > 10 nM | > 100 nM | > 100 nM | > 100 nM | > 1 µM | > 10000 nM | > 100 nM | COc1cc2nccc(Oc3c(F)c(F)c(NC(=O)NC4CC4)c(OC)c3F)c2cc1C(N)=O [III-51] |  |  |  |  |  |  | 
> 10 µM | > 10000 nM | > 5000 nM | > 10 nM | > 100 nM | > 100 nM | > 100 nM | > 1 µM | > 10000 nM | > 100 nM | COc1cc2nccc(Oc3c(F)c(N(C)C)c(NC(=O)NC4CC4)c(N(C)C)c3F)c2cc1C(N)=O [III-52] |  |  |  |  |  |  | 

Continued, compound first:

Structure (SMILES) | IC50 [3, 9] | IC50 [5] | IC50 [6] | IC50 (VEGFR-2 (KDR); [11]) | IC50 (C-MET; [12]) | IC50 (FGFR2; [13]) | IC50 (FGFR4; [14]) | IC50 [7, 16] | IC50 [8] | IC50 (EGFR; [17]) | IC50 (FGFR3) | IC50 [3, 10] | IC50 (C-MET; read-out: C-MET IC50) | IC50 (FGFR4; read-out: FGFR-4 IC50) | IC50 [7, 15] | IC50 (EGFR; read-out: EGFR IC50) | also measured
COc1cc2nccc(Oc3c(F)cc(NC(=O)NC4CC4)c(Cl)c3F)c2cc1C(N)=O [III-01] | < 5 µM | 5000 to 10000 nM | < 2500 nM | < 2 nM | 60 to 100 nM | < 30 nM | < 30 nM | < 0.2 µM | 5000 to 10000 nM | < 60 nM | 22 nM | 1.5 µM | 96 nM | 17 nM | 0.13 µM | 58 nM and 53 nM | MTD ([1]; 300 mg/kg, rats, read-out: MTD toxicity dose): 300 mg/kg; MTD ([1]; rats, read-out: MTD toxicity dose): > 300 mg/kg; Observation at MTD dose (rats [2]): without any abnormalities such as death; IC50 (RET): 2.5 nM; IC50 (hERG potassium channels): > 30000 nM; Autopsy results, 28-day GLP toxicity test (rats [4]): did not reveal any abnormal changes; IC50 (PDGFRα): 7.9 nM; IC50 (VEGFR-2 (KDR); read-out: VEGFR-2 (KDR) IC50): 0.6 nM; IC50 (FGFR1): 14 nM; IC50 (ABL): 68 nM; IC50 (FGFR2; read-out: FGFR-2 IC50): 11 nM; IC50 (VEGFR-3 (FLT4)): 1.1 nM; Ames assay (Ames assay): negative; IC50 (VEGFR-1 (FLT1)): 3.7 nM
COc1cc2nccc(Oc3ccc(NC(=O)NC4CC4)c(Cl)c3)c2cc1C(N)=O [Lenvatinib, reference compound] | > 10 µM |  |  |  | > 100 nM | 30 to 100 nM | 30 to 100 nM | 0.2 to 1 µM |  |  | 59 nM | > 10 µM | > 1000 nM | 65 nM | 0.29 µM |  | MTD [1]: 40 mg/kg; IC50 (PDGFRα): 27 nM; IC50 (FGFR1): 56 nM; IC50 (FGFR2; read-out: FGFR-2 IC50): 27 nM; IC50 (VEGFR-3 (FLT4)): 3.2 nM
COc1cc2nccc(Oc3ccc(NC(=O)NC4CC4)c(Cl)c3F)c2cc1C(N)=O [Ref-2, reference compound] |  |  |  |  |  |  |  |  |  |  |  | 6.4 µM |  | 39 nM | 0.42 µM | > 1000 nM | IC50 (hERG potassium channels): 15400 nM; IC50 (VEGFR-2 (KDR); read-out: VEGFR-2 (KDR) IC50): 8.6 nM
CNC(=O)c1cc(Oc2ccc(NC(=O)Nc3ccc(Cl)c(C(F)(F)F)c3)c(F)c2)ccn1 [Regorafenib, reference compound] | > 10 µM |  |  |  | > 100 nM |  | > 100 nM | 0.2 to 1 µM |  | > 100 nM | 62 nM |  | > 1000 nM | > 500 nM |  | > 1000 nM | IC50 (ABL): > 500 nM
